Experiments:
Assay type in all cases: biochemical
[1] = 2′-group discrimination of M635 mutants; settings: wild-type or Y639F T7 RNAP background
Description: Other mutations: It is conceivable that, in the absence of a bound rNTP, a hydrogen bond forms between Y639 and some other active site side chain. The possibility of an interaction between M635 and Y639 was tested since M635 and Y639 are close and M635 approaches the ribose in our models of NTP in T7 RNAP (Huang, et al., submitted for publication). This position is methionine in the T7 RNAP class of RNAPs (McAllister, W.T., 1993), but is either tyrosine or phenylalanine in the homologous DNAPs, and in the DNAP mutants at this site (i.e., positions homologous to position 762 in E. coli DNAP I) that affect dNTP/ddNTP discrimination (Tabor. S., and Richardson, C. C., European patent application, 1994). […] Additional studies will reveal whether these M635 mutations have other effects, such as effects on discrimination at the 3′-position of the sugar, or effects on discrimination with respect to NTPs with other substituents, such as fluorine at the 2′ position of the sugar. Also, studies on similar double mutations at the homologous sites in the homologous class I DNAPs will reveal the effects of such double mutations on discrimination at the 2′- and 3′-positions of the sugar; specifically, these studies will reveal whether class I DNAPs having a phenylalanine at the position homologous to amino acid position 766 in E. coli DNAP I have reduced discrimination for rNTPs if the amino acid is methionine or tyrosine at the position homologous to amino acid position 762 in E. coli DNAP I.

[2] = system: poly(dI)·poly(dC); experiment: Relative activity on poly(dI)·poly(dC)
Description: (§1) Transcription reactions: Transcription reactions were carried out in 40 mM Tris-Cl pH 8.0, 15 mM MgCl2, and 5 mM DTT or 20 mM Manganese Citrate pH 8.0, 5 mM DTT at 37° C. Template, polymerase, and NTP concentrations were as indicated in the legends to the figures and tables. Relative activity determinations were made by taking 4 μl aliquots of reactions at 5, 10, and 20 minute time points and spotting on to DE81 filter paper. Unincorporated nucleotides were separated from incorporated nucleotides by washing the filter paper with 0.5 M KH2PO4 pH 7.0 and retained radioactive nucleotide was quantitated with a Molecular Dynamics phosphorimager. To evaluate rNTP/dNTP selectivity, reactions were run with 4 rNTPs and pT75 as template and α-P^32 rNTPs or α-P^32 dNTPs were used to label the transcripts. The relative rate of incorporation of an rNTP vs. its cognate dNTP was determined from the relative percentages of labeled rNTP vs. dNTP incorporated into DE81 retainable RNA at 5, 10, and 20 minute time points. Apparent miscoding frequencies were determined similarly, though in this instance the template was a single-stranded homopolymer and the reaction contained the complementary unlabeled rNTP, and complementary α-P^32 rNTP or one of the 3 non-complementary α-P^32 rNTPs. The relative percentages of labeled complementary vs. non-complementary rNTPs incorporated at 5, 10 and 20 minute time points gave an apparent miscoding rate. The rNTP/dNTP selectivity assay was used to test the following T7 RNAP mutants for effects on substrate discrimination: D537S, D537E, S539A, R5S1S, D552S, R627S, K631S, L637A, Y639S, Y639F, Y639A, G640A, F644A, G645A, Q649S, […], H811S, H811A, D812A, D812E, D812S, D812N, D879E+ΔF882+ΔA883, D879E+A881T+ΔA883, D879E+F884+A885, D879E+F882Y, D879E+ΔA883, D879E+F882W, D879E.
DNA and RNA synthesis on homopolymeric templates: T7 RNAP will synthesize poly(rG) RNAs on poly(dC) templates (Bonner, et al., 1994; Ikeda and Richardson 1987). The activity of the W.T. and mutant polymerases were measured on poly(dI)-poly(dC) with rGTP, dGTP, dGTP+rGMP (see, Table III).
Numbers give mean and range from 3 experiments. Templates were at 0.2 mg/ml, polymerases at 10^-8 M. Labeling NTPs were α-P^32 rGTP, α-P^32 dGTP, α-P^32 rATP, α-P^32 dATP, as appropriate. rNTPs or rNMPs at 0.5 mM; dNTPs at 1 mM.

[3] = system: poly(dC); experiment: Apparent miscoding on homopolymeric template poly(dC); settings: for Relative rate of incorporation of rGTP vs non-complementary rNTPs / Relative rate of incorporation GTP/ATP / Relative rate of incorporation GTP/CTP / Relative rate of incorporation GTP/UTP: poly(dC); for Relative rate of incorporation GTP/ATP / Relative rate of incorporation GTP/CTP / Relative rate of incorporation GTP/UTP: Mg^2+ buffer
Description: as §1
An increase in miscoding would be reflected in an increase in the rate of incorporation of the non-complementary NTP into RNA.
Numbers are averages from 2 experiments and reflect the ratio of the percentages of labeled rNTPs incorporated into RNA in reactions in which unlabeled complementary rNTPs were in great excess (0.5 mM) to labeled complementary or non-complementary rNTPs. Templates were at 0.1 mg/ml. Polymerases were at 10^−8 M in Mg^2+ buffer and 10^−7 M in Mn^2+ buffer.
*The upper number refers to results obtained in Mg^2+ buffer, the lower number to results in Mn^2+ buffer. n.d.: G640A, Y639A, Y639S were poorly active in Mn^2+ buffer, or on poly(dT) under all conditions.

[4] = system: pT75; experiment: Activity with NTPs containing different 2′-substituents; parameters: unit not given here
Description: Activity was determined with pT75 as template but with one of the rNTPs replaced with a dNTP or a 2′-modified NTP. The labeling NTP was UTP (in reactions with 2′-modified CTPs or ATPs) or CTP (in reactions with 2′-modified UTPs). Y639F and Y639M represent enzymes with substitutions of the wild-type (W.T.) tyrosine at position 639 by phenyalanine (F) or methionine (M), respectively.

[5] = rGTP, mean and range from 3 experiments

Substance	2′-group discrimination with respect to dNTPs and rNTPs [1]	Relative activity on poly(dI)·poly(dC) ([2]; dGTP)	Relative activity on poly(dI)·poly(dC) ([2]; dGTP + rGMP)	Relative activity on poly(dI)·poly(dC) [2, 5]	Activity in Mn^2+ buffer, or on poly(dT) under all conditions [3]	Relative rate of incorporation GTP/ATP [3]	Relative rate of incorporation GTP/CTP [3]	Relative rate of incorporation GTP/UTP [3]	further results
M635A: T7 RNAP M635 mutant	did not affect 2′-group discrimination								
Y639S: poorly active non-conservative tyrosine 639 mutation of T7 RNAP		.6	4.4	48 (47-50)	poorly active	>50	>50	>50	Relative rate of incorporation of rGTP vs non-complementary rNTPs [3]: 50 fold
Y639M: T7 RNAP with tyrosine at position 639 substituted by methionine									Activity ([4]; 2′-F-ATP replacing ATP): 9.7 ± .20; Activity ([4]; 2′-F-CTP replacing CTP): 47 ± .70; Activity ([4]; 2′-F-UTP replacing UTP): 23 ± .72; Activity ([4]; 2′-NH2-ATP replacing ATP): .92 ± .035; Activity ([4]; 2′-NH2-CTP replacing CTP): 21 ± .38; Activity ([4]; 2′-NH2-UTP replacing UTP): 3.6 ± .19; Activity ([4]; 2′-dATP replacing ATP): 3.2 ± .11; Activity ([4]; 2′-dCTP replacing CTP): 32 ± 1.1; Activity ([4]; 2′-dUTP replacing UTP): 11 ± .46; Activity ([4]; ATP): 51 ± 1.3; Activity ([4]; CTP): 54 ± 3.9; Activity ([4]; UTP): 50 ± 1.2
M635Y: T7 RNAP M635 mutant	did not affect 2′-group discrimination								
M635F: T7 RNAP M635 mutant	did not affect 2′-group discrimination								
Y639A: poorly active non-conservative tyrosine 639 mutation of T7 RNAP		5.3 (4.8-5.5)	25 (17-30)	145 (142-151)	poorly active	>184	>184	>184	Relative rate of incorporation of rGTP vs non-complementary rNTPs [3]: 184 fold
G640A: T7 RNAP mutant adjacent to Y639 that does not affect substrate discrimination [reference compound]		<5	<5	240 (200-270)	poorly active	388	508	>1320	
